Measured values reported in patent publication US20250092017A1, “2-PIPERIDYL OR 2-PYRAZOLYL SUBSTITUTED PYRIMIDINE COMPOUND SERVING AS EGFR INHIBITOR” (SUZHOU PUHE BIOPHARMA CO., LTD., priority 2022, published 2025).
Like-named read-outs stand apart in the source and are kept apart here.

Legend:
Format in all cases: cell-based
[1] = biological target: Ba/F3-FL-EGFR-L858R-T790M-C797S (Homo sapiens, UniProt P00533, T790M/C797S/L858R, cells depend on it); assay: CellTiter-Glo proliferation, Ba/F3-FL-EGFR-L858R-T790M-C797S; conditions: 72 hours, read-out: Ba/F3-FL-EGFR-L858R-T790M-C797S IC50/nM
Ba/F3-FL-EGFR-L858R-T790M-C797S, sequence (P00533 whole entry T790M/C797S/L858R): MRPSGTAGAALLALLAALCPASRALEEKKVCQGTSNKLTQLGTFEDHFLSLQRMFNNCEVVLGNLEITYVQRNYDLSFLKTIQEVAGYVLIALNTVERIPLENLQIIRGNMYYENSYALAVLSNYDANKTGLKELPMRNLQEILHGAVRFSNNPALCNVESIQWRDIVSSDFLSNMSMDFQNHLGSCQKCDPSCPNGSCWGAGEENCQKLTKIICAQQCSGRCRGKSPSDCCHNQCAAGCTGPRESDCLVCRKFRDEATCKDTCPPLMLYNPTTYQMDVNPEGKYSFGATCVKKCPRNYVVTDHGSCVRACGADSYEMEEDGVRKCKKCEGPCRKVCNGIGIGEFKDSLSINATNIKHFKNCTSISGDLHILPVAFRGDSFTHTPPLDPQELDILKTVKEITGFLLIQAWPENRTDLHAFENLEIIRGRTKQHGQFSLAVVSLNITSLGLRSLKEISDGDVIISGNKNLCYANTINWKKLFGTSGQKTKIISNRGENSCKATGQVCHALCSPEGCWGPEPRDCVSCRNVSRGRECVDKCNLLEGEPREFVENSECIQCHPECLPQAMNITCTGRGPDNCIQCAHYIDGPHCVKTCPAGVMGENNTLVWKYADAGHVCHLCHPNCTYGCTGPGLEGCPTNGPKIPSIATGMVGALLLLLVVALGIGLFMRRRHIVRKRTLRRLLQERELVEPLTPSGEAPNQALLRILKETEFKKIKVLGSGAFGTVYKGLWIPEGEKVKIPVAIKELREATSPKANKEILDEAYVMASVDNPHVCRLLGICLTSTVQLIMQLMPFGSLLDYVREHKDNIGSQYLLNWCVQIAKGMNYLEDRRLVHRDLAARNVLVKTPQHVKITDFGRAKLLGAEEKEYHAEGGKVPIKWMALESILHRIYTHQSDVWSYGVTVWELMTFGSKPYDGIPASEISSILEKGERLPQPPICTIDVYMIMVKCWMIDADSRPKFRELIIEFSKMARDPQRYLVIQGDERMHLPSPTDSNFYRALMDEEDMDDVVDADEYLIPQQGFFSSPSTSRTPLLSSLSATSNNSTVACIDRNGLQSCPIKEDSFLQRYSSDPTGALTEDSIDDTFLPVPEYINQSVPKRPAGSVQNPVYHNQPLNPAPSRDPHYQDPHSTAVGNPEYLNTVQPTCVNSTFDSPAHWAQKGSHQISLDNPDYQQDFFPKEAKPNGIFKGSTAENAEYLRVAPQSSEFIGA
Protocol: (§1) Promega CellTiter-Glo reagent was used to detect the effects of small molecule inhibitors on the proliferation of five Ba/F3 cell lines (Ba/F3-FL-EGFR, Ba/F3-FL-EGFR-L858R, Ba/F3-FL-EGFR-L858R-T790M-C797S, Ba/F3-TEL-EGFR-L858R-C797S and Ba/F3-FL-EGFR-del19-C797S).
(§2) The cell lines were cultured in an incubator at 37° C. and 5% CO2. Cells were passaged regularly and cells in the logarithmic phase were used for plating. 95 μL of cell suspension was added to each well of the cell plate, and culture medium without cells (containing 0.1% DMSO) was added to the Min control wells. Substance addition for compound detection cell plate: 5 μL of 20× compound working solution was added to the cell culture plate as shown in the table below. 50 μL of DMSO-cell culture medium mixture was added to the Max control, with the final DMSO concentration of 0.1%. 5 μL of DMSO-cell culture medium mixture was added to the Max control. The final DMSO concentration was 0.1%.
(§3) The compounds to be tested were added as per the table below
(§4) Cell viability was detected by CellTiter-Glo luminescence assay. Data analysis:
(§5) The cell proliferation inhibition rate (Inhibition Rate) data was processed using the following formula: […]
(§6) wherein: RLUDrug represents the relative luminescence unit of the cells with the addition of drug, RLUMin represents the luminescence unit of the culture medium, and RLUMax represents the relative luminescence unit of the cells with the addition of DMSO.
(§7) The inhibition rates corresponding to different concentrations of compounds were calculated in EXCEL, and then the inhibition rate curve was plotted using GraphPad Prism software and related parameters including the maximum and minimum inhibition rates of cells and IC50 values were calculated.

Ba/F3-FL-EGFR = biological target: T1, Ba/F3-FL-EGFR (Homo sapiens, UniProt P00533); assay: CellTiter-Glo proliferation, Ba/F3-FL-EGFR; conditions: 72 hours, read-out: Ba/F3-FL-EGFR IC50/nM
T1 construct: FL read as full length
T1 sequence (P00533 whole entry, change not shown): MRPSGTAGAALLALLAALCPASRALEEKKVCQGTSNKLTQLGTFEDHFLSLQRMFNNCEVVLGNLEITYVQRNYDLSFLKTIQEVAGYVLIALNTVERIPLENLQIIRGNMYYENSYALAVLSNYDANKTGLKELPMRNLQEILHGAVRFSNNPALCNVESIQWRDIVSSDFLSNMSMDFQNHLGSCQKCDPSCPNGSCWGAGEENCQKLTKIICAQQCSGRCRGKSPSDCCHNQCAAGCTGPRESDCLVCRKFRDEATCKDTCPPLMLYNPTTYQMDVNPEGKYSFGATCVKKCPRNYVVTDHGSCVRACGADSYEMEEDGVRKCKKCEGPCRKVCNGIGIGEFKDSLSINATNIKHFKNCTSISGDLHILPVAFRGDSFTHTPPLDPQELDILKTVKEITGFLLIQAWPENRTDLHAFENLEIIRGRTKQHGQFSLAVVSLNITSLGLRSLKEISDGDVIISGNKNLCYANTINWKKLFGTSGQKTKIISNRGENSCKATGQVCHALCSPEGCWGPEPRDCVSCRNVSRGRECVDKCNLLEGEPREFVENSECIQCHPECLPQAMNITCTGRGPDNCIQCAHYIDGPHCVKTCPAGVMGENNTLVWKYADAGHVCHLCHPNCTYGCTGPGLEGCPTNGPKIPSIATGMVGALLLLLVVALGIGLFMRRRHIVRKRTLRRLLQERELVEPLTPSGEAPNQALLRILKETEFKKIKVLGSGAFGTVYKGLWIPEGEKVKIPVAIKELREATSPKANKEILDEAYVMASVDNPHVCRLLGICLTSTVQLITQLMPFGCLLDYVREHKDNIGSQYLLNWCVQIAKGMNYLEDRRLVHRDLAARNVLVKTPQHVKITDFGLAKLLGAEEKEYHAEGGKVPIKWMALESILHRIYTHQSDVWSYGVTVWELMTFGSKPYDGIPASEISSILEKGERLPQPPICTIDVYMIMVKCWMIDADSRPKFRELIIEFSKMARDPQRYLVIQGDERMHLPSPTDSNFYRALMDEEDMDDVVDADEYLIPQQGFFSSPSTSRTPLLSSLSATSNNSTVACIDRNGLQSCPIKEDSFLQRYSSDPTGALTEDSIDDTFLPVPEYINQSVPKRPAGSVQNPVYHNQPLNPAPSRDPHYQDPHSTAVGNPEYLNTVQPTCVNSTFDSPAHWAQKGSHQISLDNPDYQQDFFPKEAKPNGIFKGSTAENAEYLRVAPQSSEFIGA
Protocol: as §1, §2, §3, §4, §5, §6, §7

Ba/F3-FL-EGFR-L858R = Ba/F3-FL-EGFR-L858R (Homo sapiens, UniProt P00533, L858R, cells depend on it); assay: CellTiter-Glo proliferation, Ba/F3-FL-EGFR-L858R; conditions: 72 hours, read-out: Ba/F3-FL-EGFR-L858R IC50/nM
Ba/F3-FL-EGFR-L858R, sequence (P00533 whole entry L858R): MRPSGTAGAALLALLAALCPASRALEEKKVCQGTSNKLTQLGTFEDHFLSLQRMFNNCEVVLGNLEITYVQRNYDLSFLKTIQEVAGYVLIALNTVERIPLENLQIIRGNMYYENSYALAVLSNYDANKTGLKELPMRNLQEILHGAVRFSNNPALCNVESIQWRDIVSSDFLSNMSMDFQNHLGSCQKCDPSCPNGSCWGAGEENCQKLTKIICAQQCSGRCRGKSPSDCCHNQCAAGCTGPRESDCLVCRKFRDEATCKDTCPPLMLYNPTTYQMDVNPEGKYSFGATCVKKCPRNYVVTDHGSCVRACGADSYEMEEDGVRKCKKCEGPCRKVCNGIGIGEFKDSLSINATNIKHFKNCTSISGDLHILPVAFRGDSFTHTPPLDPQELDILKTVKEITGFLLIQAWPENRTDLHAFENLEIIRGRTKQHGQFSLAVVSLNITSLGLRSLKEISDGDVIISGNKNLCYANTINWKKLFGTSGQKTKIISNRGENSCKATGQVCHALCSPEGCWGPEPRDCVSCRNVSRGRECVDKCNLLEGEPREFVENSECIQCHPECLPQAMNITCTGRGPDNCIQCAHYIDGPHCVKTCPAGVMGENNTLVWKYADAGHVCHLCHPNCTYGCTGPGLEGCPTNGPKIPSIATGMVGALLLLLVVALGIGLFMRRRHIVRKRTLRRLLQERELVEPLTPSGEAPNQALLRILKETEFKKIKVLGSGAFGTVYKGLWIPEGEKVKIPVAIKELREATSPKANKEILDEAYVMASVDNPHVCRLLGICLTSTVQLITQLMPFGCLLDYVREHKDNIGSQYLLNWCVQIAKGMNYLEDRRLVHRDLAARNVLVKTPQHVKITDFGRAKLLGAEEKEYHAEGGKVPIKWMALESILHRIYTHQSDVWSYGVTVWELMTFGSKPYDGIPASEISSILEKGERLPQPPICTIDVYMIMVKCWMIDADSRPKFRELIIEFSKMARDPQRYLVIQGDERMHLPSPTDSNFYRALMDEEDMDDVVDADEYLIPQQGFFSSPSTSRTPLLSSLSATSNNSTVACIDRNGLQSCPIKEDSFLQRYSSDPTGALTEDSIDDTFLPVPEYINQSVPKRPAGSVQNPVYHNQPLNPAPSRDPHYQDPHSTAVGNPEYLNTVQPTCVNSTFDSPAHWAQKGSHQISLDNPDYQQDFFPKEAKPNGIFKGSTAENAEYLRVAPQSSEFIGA
Protocol: as §1, §2, §3, §4, §5, §6, §7

[2] = biological target: T2, Ba/F3-TEL-EGFR-L858R-C797S (Homo sapiens, UniProt P00533, C797S/L858R, cells depend on it); assay: CellTiter-Glo proliferation, Ba/F3-TEL-EGFR-L858R-C797S; conditions: 72 hours, read-out: Ba/F3-TEL-EGFR-L858R-C797S IC50/nM
T2 construct: fused on or other part: N-terminal TEL (ETV6) oligomerising part fused to the EGFR intracellular/kinase part; P41212 (Transcription factor ETV6)
T2 sequence (P00533 whole entry C797S/L858R, the tested form may be a part): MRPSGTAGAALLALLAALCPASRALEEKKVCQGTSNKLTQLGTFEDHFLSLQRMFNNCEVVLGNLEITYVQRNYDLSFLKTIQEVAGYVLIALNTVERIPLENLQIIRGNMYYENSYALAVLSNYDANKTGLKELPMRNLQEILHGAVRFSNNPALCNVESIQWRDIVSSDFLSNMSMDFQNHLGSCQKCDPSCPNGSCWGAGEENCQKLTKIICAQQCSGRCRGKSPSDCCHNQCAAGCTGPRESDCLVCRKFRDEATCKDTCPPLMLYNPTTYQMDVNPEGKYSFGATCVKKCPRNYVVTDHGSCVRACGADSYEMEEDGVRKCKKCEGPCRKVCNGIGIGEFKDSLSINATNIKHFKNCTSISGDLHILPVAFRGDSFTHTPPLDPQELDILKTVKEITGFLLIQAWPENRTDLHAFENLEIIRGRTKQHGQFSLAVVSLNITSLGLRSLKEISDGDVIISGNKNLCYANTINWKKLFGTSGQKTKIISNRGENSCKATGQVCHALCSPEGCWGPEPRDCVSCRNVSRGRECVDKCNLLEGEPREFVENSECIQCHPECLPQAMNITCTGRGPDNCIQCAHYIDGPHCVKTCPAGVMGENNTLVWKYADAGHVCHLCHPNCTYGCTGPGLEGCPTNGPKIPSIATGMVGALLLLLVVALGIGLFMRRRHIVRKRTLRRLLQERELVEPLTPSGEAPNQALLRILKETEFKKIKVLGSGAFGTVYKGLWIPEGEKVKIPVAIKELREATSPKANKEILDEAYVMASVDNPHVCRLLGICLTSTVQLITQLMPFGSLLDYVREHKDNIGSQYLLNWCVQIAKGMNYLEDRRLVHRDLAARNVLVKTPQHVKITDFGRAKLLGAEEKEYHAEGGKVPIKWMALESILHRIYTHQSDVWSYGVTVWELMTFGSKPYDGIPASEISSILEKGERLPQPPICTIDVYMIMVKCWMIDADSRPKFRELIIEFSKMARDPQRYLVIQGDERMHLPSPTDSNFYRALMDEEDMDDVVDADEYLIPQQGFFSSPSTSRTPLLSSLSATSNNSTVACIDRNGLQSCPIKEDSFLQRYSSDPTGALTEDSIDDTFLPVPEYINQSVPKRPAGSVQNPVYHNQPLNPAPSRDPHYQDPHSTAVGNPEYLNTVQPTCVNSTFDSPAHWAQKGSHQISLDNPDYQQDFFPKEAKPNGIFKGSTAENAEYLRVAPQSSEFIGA
Protocol: as §1, §2, §3, §4, §5, §6, §7

[3] = system: Ba/F3-FL-EGFR-del19-C797S; assay: CellTiter-Glo proliferation, Ba/F3-FL-EGFR-del19-C797S; conditions: proliferation, 72 hours, CellTiter-Glo, read-out: Ba/F3-FL-EGFR-del19-C797S IC50/nM
Protocol: as §1, §2, §3, §4, §5, §6, §7

Compound	GI50 [1]	GI50 (Ba/F3-FL-EGFR)	GI50 (Ba/F3-FL-EGFR-L858R)	GI50 [2]	IC50 ([3]; 72 h)	IC50 [3]
CC(C)c1ccc(N2CC(CS(C)(=O)=O)C2)c2cnc(Nc3ccnc(-c4cnn(S(=O)(=O)c5ccccn5)c4)n3)cc12 [Compound H16]	652 nM	1360 nM	235 nM	122 nM	264 nM	–
CC(C)c1ccc(N2CC(N3CCCS3(=O)=O)C2)c2cnc(Nc3ccnc(N4CCC(O)C(F)C4)n3)cc12 (stereo not drawn) [Compound P34]	78 nM	903 nM	206 nM	83 nM	234 nM	–
COCCS(=O)(=O)N(C)C1CN(c2ccc(C(C)C)c3cc(Nc4ccnc(N5CCC(OC)C(F)C5)n4)ncc23)C1 (stereo not drawn) [Compound P49]	38 nM	1070 nM	121 nM	36 nM	316 nM	–
CO[C@H]1CCN(c2nccc(Nc3cc4c(C(C)C)ccc(N5C[C@H](N(C)S(C)(=O)=O)[C@H]5C)c4cn3)n2)C[C@H]1F [Compound P40b]	4.8 nM	465 nM	25 nM	5.9 nM	81 nM	–
COCCS(=O)(=O)n1cc(-c2nccc(Nc3cc4c(C(C)C)ccc(N5C[C@H](CS(C)(=O)=O)[C@H]5C)c4cn3)n2)cn1 [Compound H21]	4.4 nM	76 nM	2.9 nM	1.8 nM	4.3 nM	–
[2H]C([2H])([2H])N([C@H]1CN(c2ccc(C(C)C)c3cc(Nc4ccnc(N5CCC(OC)C(F)C5)n4)ncc23)[C@@H]1C)S(C)(=O)=O (stereo partly drawn) [Compound P42]	5.8 nM	761 nM	16 nM	6.6 nM	90 nM	–
CC(C)OCCS(=O)(=O)n1cc(-c2nccc(Nc3cc4c(C(C)C)ccc(N5C[C@H](CS(C)(=O)=O)[C@H]5C)c4cn3)n2)cn1 [Compound H32]	397 nM	3290 nM	510 nM	226 nM	340 nM	–
CC(C)c1ccc(N2CC(CS(C)(=O)=O)C2)c2cnc(Nc3ccnc(-c4cnn(S(=O)(=O)CC5CC5)c4)n3)cc12 [Compound H14]	136 nM	721 nM	71 nM	28 nM	34 nM	–
CC(C)c1ccc(N2CC(N(C)S(C)(=O)=O)C2)c2cnc(Nc3ccnc(N4CC[C@H](O)[C@H](F)C4)n3)cc12 [Compound P39b]	14 nM	760 nM	24 nM	16 nM	60 nM	–
CC(C)c1ccc(N2CC(N(C)S(C)(=O)=O)C2)c2cnc(Nc3ccnc(-c4cnn(S(=O)(=O)C5CC5)c4)n3)cc12 [Compound H25]	26 nM	208 nM	14 nM	9.6 nM	11 nM	–
CC(C)c1ccc(N2CC(NS(=O)(=O)c3ccoc3)C2)c2cnc(Nc3ccnc(N4CCC(O)C(F)C4)n3)cc12 (stereo not drawn) [Compound P33]	91 nM	1500 nM	218 nM	115 nM	351 nM	–
CC(C)c1ccc(N2CC(CS(C)(=O)=O)C2)c2cnc(Nc3ccnc(-c4cnn(CC#N)c4)n3)cc12 [Compound H26]	336 nM	1420 nM	74 nM	56 nM	128 nM	–
CCOCCS(=O)(=O)n1cc(-c2nccc(Nc3cc4c(C(C)C)ccc(N5C[C@H](CS(C)(=O)=O)[C@H]5C)c4cn3)n2)cn1 [Compound H22]	14 nM	229 nM	17 nM	13 nM	14 nM	–
CC(C)c1ccc(N2C[C@H](CS(C)(=O)=O)[C@H]2C)c2cnc(Nc3ccnc(-c4cnn(S(=O)(=O)N(C)C)c4)n3)cc12 [Compound H28]	68 nM	595 nM	50 nM	23 nM	48 nM	–
CC(C)c1ccc(N2CC(CS(C)(=O)=O)C2)c2cnc(Nc3ccnc(-c4cnn(S(=O)(=O)C5COC5)c4)n3)cc12 [Compound H17]	127 nM	858 nM	56 nM	33 nM	58 nM	–
COC1CCN(c2nccc(Nc3cc4c(C(C)C)ccc(N5C[C@H](NS(C)(=O)=O)[C@H]5C)c4cn3)n2)CC1F (stereo partly drawn) [Compound P38]	5.4 nM	540 nM	15 nM	7 nM	76 nM	–
CCCS(=O)(=O)NC1CN(c2ccc(C(C)C)c3cc(Nc4ccnc(N5CCC(O)C(F)C5)n4)ncc23)C1 (stereo not drawn) [Compound P48]	31 nM	1170 nM	76 nM	29 nM	144 nM	–
CCS(=O)(=O)N[C@H]1CN(c2ccc(C(C)C)c3cc(Nc4ccnc(N5CCC(OC)C(F)C5)n4)ncc23)[C@@H]1C (stereo partly drawn) [Compound P44]	6.7 nM	775 nM	21 nM	10 nM	110 nM	–
CCCS(=O)(=O)N[C@H]1CN(c2ccc(C(C)C)c3cc(Nc4ccnc(N5CCC(OC)C(F)C5)n4)ncc23)[C@@H]1C (stereo partly drawn) [Compound P32]	8.9 nM	565 nM	22 nM	16 nM	123 nM	–
CO[C@@H]1CCN(c2nccc(Nc3cc4c(C(C)C)ccc(N5C[C@H](N(C)S(C)(=O)=O)[C@H]5C)c4cn3)n2)C[C@@H]1F [Compound P40a]	2.5 nM	421 nM	20 nM	5.8 nM	53 nM	–
COCCS(=O)(=O)n1cc(-c2nccc(Nc3cc4c(C(C)C)ccc(N5CC(CS(C)(=O)=O)C5)c4cn3)n2)cn1 [Compound H20]	188 nM	2110 nM	43 nM	22 nM	–	53 nM
COCCS(=O)(=O)n1cc(-c2nccc(Nc3cc4c(C(C)C)ccc(N5CC(CS(C)(=O)=O)C5)c4cn3)n2)cn1 [Compound H15]	8.6 nM	148 nM	5.7 nM	4.3 nM	–	6.6 nM
COC1CCN(c2nccc(Nc3cc4c(C(C)C)ccc(N5CC(N(C)S(C)(=O)=O)C5)c4cn3)n2)CC1F (stereo not drawn) [Compound P36]	14 nM	1090 nM	33 nM	8.3 nM	159 nM	–
CCS(=O)(=O)NC1CN(c2ccc(C(C)C)c3cc(Nc4ccnc(N5CCC(O)C(F)C5)n4)ncc23)C1 (stereo not drawn) [Compound P47]	42 nM	1610 nM	113 nM	38 nM	179 nM	–
